Assay results reported in PMC6961345 (Antiviral Chemistry & Chemotherapy, 2018).
“And” between values parts separate entries of the source, which are not always exact repeats. Equal values may be shown once.

Test system: A/Georgia/20/2006 (H1N1) H275Y
Type: cell-based, influenza A virus

SMILES: C[n+]1ccc(C(=O)NCc2ccccc2)cc1 [enisamium, N-methyl-4-benzylcarbamidopyridinium]
- EC90: 144 µM and 286 µM
